{"source": "paper PMC11456426", "about": "“Study of transport, tissue distribution, depletion, and hepatotoxicity of Cyadox, a quinoxaline-1,4-dioxide derivative” (Frontiers in Pharmacology, 2024)", "key": {"testis": {"tested_on": "testis", "design": "method as in Ihsan et al., 2011", "conditions": "ref Ihsan et al., 2011, cited from earlier work"}, "[1]": {"molecular_target": "T1, bovine serum albumin (BSA) (Bos taurus, UniProt P02769)", "T1 sequence (P02769 25-607)": "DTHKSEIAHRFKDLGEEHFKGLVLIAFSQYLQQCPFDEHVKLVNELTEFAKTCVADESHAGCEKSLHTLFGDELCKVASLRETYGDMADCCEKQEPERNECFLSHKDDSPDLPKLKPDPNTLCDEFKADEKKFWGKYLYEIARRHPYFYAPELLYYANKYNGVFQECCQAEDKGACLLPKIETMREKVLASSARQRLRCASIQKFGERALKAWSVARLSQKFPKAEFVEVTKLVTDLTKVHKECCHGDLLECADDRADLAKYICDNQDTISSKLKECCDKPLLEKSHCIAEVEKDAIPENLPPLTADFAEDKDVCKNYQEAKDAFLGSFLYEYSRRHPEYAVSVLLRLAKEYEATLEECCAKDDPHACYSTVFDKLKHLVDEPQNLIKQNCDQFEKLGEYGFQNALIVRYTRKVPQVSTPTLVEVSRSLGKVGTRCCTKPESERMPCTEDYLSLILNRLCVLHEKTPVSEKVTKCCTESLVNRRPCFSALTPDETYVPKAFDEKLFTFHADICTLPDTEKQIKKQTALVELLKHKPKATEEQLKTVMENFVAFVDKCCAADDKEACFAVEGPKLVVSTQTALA", "assay": "Fluorescence quenching of BSA by CYA (Stern-Volmer and binding constants)", "conditions": "for Kd: read-out: KA (binding constant) (converted)", "procedure": "The concentration of CYA was varied at 0, 0.33, 0.66, 1.0, 1.33, 1.66, and 2.0 × 10^−6 M.\nSteady-state fluorescence spectra were performed on a FP-6500 spectrofluorimeter (Jasco, Japan) equipped with a thermostatic bath and 1.0 cm quartz cell. Fluorescence emission spectra were recorded at 300, 305, and 310 K in the range of 295 nm–500 nm. The excitation and emission slits with a band pass of 5 nm were used for all the measurements.\nSynchronous fluorescence spectra were performed when the D-values between the excitation and emission wavelengths were set at 15 and 60 nm. Fluorescence excitation spectra were recorded at 302, 307, and 312 K in the range of 200–400 nm.\nThe Stern–Volmer equation below was used to analyze the fluorescence quenching data and confirm the quenching mechanism ([Zhou et al., 2022]): F0/F=1+KSVQ=1+kqτ0Q , where F 0 and F are the fluorescence intensities before and after the addition of the quencher CYA, K sv is the Stern–Volmer quenching constant, k q is the bimolecular quenching constant, τ 0 is the lifetime of the fluorophore in the absence of the quencher (10^−8 s), and [Q] is the concentration of the quencher. The Stern–Volmer quenching constant K sv is inversely correlated with temperature, and the k q values are much greater than the maximum scattering collisional quenching constant (2.0 × 10^10 M^−1S^−1).\nFor static quenching, the equilibrium between the free and bound molecules is given by the following equation: logF0−F/F=logKA+nlogQ , where K A is the binding constant, and n is the number of binding sites. […] Moreover, the values of n were approximately equal to 1, which indicated the presence of one binding site in the BSA–CYA system."}, "[2]": {"molecular_target": "T1, bovine serum albumin (BSA)", "assay": "Circular dichroism spectra of the BSA-CYA system", "format": "binding", "conditions": "1.0 × 10^−6 M BSA with 1.0 × 10^−6 M CYA, pH 7.4, 312 K", "procedure": "For CD studies, the final concentration of BSA and CYA was 1.0 × 10^−6 M. The CD spectra were recorded at 312 K with a Jasco-810 spectropolarimeter (Jasco, Japan) using a 0.1 cm quartz cuvette. Three scans were accumulated at a scan speed of 200 nm min^−1, with data being collected every 0.2 nm from 200 nm to 260 nm at 312 K."}, "liver": {"tested_on": "liver", "assay": "Hepatotoxicity by liver transcriptomics", "format": "in vivo, KM mice", "conditions": "mice, CYA 1,000 mg/kg bw, 7 days", "procedure": "For the hepatotoxicity study, a group of four mice (2 male and 2 female, KM) were administered CYA at a dose of 1,000 mg/kg bw. Another group of four mice received saline as a control. After 7 days, the mice were anaesthetised, sacrificed and their livers collected. A total of eight samples from 2 groups of the obtained livers were sent to Majorbio Technology Co., Ltd. (Shanghai, China) for testing, divided into the blank group (control; A1, A2, A3, A4) and the drug group administered CYA (drug; B1, B2, B3, B4), with 4 samples in each group. Sequencing was performed using the Meiji Medical Reference Transcriptome Sequencing Platform to complete the transcriptome analysis of eight samples. The raw reads were deposited into the NCBI Sequence Read Archive (SRA) database (BioProject: Number: PRJNA1082257).\nDifferently expressed genes are genes with significant differences obtained by computing the expression of all genes between different groups after transcriptome sequencing. On the Meggie Bio platform, differential gene analysis was carried out between groups by quantifying the expression results to obtain the genes that were differentially expressed between the two groups, and the differential analysis software was: DESeq2, the screening threshold was: |log2FC| ≥0 and padjust< 0.05, and the specific results are shown in Figure 5B below."}}, "note": "Where two headings read alike, the source gives them in different places."}
{"smiles": "CC(=O)c1c(C)[n+]([O-])c2ccccc2[n+]1[O-]", "note": "[MEQ, Mequindox]", "values": [{"measurement": "mRNA expression levels of AR and 3β-HSD", "setting": "testis; 110 mg/kg vs control group", "result": "significantly increased"}, {"measurement": "mRNA expression levels of StAR, P450scc, and 17β-HSD in the testis", "setting": "testis; 275 mg/kg vs control group", "result": "significantly reduced"}]}
{"smiles": "N#CCC(=O)NN=Cc1c[n+]([O-])c2ccccc2[n+]1[O-]", "note": "[CYA, (2-formylquinoxaline)-N1,N4-dioxide cyanoacetylhydrazone]", "values": [{"measurement": "Ksv (Stern-Volmer quenching constant)", "setting": "[1]; T 302 K, pH 7.4", "result": 86500, "unit": "M⁻¹"}, {"measurement": "kq (bimolecular quenching constant)", "setting": "[1]; T 302 K, pH 7.4", "result": "8.65 × 10^12 M^−1S^−1"}, {"measurement": "n (number of binding sites)", "setting": "[1]; T 302 K, pH 7.4", "result": 1.139}, {"measurement": "Kd", "setting": "[1]; T 302 K, pH 7.4", "result": 5.71, "unit": "µM"}, {"measurement": "Ksv (Stern-Volmer quenching constant)", "setting": "[1]; T 307 K, pH 7.4", "result": 40700, "unit": "M⁻¹"}, {"measurement": "kq (bimolecular quenching constant)", "setting": "[1]; T 307 K, pH 7.4", "result": "4.07 × 10^12 M^−1S^−1"}, {"measurement": "n (number of binding sites)", "setting": "[1]; T 307 K, pH 7.4", "result": 0.915}, {"measurement": "Kd", "setting": "[1]; T 307 K, pH 7.4", "result": 103, "unit": "µM"}, {"measurement": "Ksv (Stern-Volmer quenching constant)", "setting": "[1]; T 312 K, pH 7.4", "result": 33600, "unit": "M⁻¹"}, {"measurement": "kq (bimolecular quenching constant)", "setting": "[1]; T 312 K, pH 7.4", "result": "3.36 × 10^12 M^−1S^−1"}, {"measurement": "n (number of binding sites)", "setting": "[1]; T 312 K, pH 7.4", "result": 0.931}, {"measurement": "Kd", "setting": "[1]; T 312 K, pH 7.4", "result": 178, "unit": "µM"}, {"measurement": "n (number of binding sites)", "setting": "[1]; all temperatures", "result": "~1"}, {"measurement": "BSA secondary structure, turns", "setting": "[2]; BSA alone 19%", "result": 26, "unit": "%"}, {"measurement": "BSA secondary structure, α-helix", "setting": "[2]; BSA alone 20%", "result": 21, "unit": "%"}, {"measurement": "BSA secondary structure, unordered", "setting": "[2]; BSA alone 26%", "result": 25, "unit": "%"}, {"measurement": "BSA secondary structure, β-strand", "setting": "[2]; BSA alone 35%", "result": 28, "unit": "%"}, {"measurement": "cell-process differential genes associated with apoptosis", "setting": "liver", "result": "none"}, {"measurement": "direction of change of lipid metabolism / steroid biosynthesis related genes", "setting": "liver", "result": "predominantly downregulated"}, {"measurement": "expression of StAR, P450scc, and 17β-HSD (liver transcriptomic data)", "setting": "liver", "result": "no significant decrease"}, {"measurement": "genes expressed uniquely after administration of the drug", "setting": "liver", "result": 249}, {"measurement": "genes of lipid metabolism-related pathways with significant changes", "setting": "liver", "result": 25}, {"measurement": "hepatotoxicity (transcriptomic assessment)", "setting": "liver", "result": "low hepatotoxicity"}, {"measurement": "significantly different genes associated with cell processes", "setting": "liver", "result": 23}, {"measurement": "genes significantly downregulated in liver, drug group vs blank group", "setting": "liver; DESeq2, padjust< 0.05", "result": 176}]}
